Columns and labels:
[1] = Inhibition of human HSP90beta expressed in yeast assessed as growth inhibition of host after 72 hrs
[2] = Inhibition of human HSP90alpha expressed in yeast assessed as growth inhibition of host after 72 hrs

SMILES: COCC(=O)Nc1c(C(=O)OC)n(CCC(C)C)c2ncc(NC(C)CCC=C(C)C)cc12 (configuration not stated)
- IC50 [1]: 120 µM
- IC50 [2]: 308 µM

— BindingDB's records for doi:10.1021/jm401801t (University of Geneva, 2014)
